Test results as given in the supplement of paper PMC10307832.

Tests used:
Assay in all cases: relative viability (nuclei count vs DMSO), 5 days (fraction); higher = more cells survive
Sulindac + Bortezomib = compound: CC1=C(CC(=O)O)c2cc(F)ccc2/C1=C\c1ccc([S+](C)[O-])cc1 [Sulindac] + CC(C)C[C@H](NC(=O)[C@H](Cc1ccccc1)NC(=O)c1cnccn1)B(O)O [Bortezomib] (partner 0.002 µM)
Summary of the method: (§1)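 Lung cancer cell lines in 1536-well plates were dosed by pin tool the day after seeding, either with one drug alone or with a fixed anchor-drug dose plus five library-drug doses (not always all listed) in √10 steps. After 5 days, cells were fixed and their nuclei stained in one step (final 0.05% Triton X-100, 1% formaldehyde, 1 ug/ml Hoechst), then counted on 4× images. Relative viability is the nuclei count in treated wells divided by that in vehicle wells. Values are medians of duplicate plates.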

[1] = compound: CN[C@@H]1C[C@H]2O[C@@](C)([C@@H]1OC)n1c3ccccc3c3c4c(c5c6ccccc6n2c5c31)C(=O)NC4 [Staurosporine] + O=C(CCCCCCC(=O)Nc1ccccc1)NO [Vorinostat] (partner 1 µM)
Summary of the method: as §1

Sulindac + Dasatinib = compound: CC1=C(CC(=O)O)c2cc(F)ccc2/C1=C\c1ccc([S+](C)[O-])cc1 [Sulindac] + Cc1nc(Nc2ncc(C(=O)Nc3c(C)cccc3Cl)s2)cc(N2CCN(CCO)CC2)n1 [Dasatinib] (partner 0.075 µM)
Summary of the method: as §1

[2] = compound: O=c1[nH]cc(F)c(=O)[nH]1 [5-Fluorouracil] + Cc1nc(NC(=O)N2CCC[C@H]2C(N)=O)sc1-c1ccnc(C(C)(C)C(F)(F)F)c1 [Alpelisib] (partner 2 µM)
Summary of the method: as §1

Work on UMC-11 yielded a relative viability (Sulindac + Bortezomib; first compound 0.08 µM) of 0.952, a relative viability (Sulindac + Bortezomib; first compound 0.253 µM) of 0.996 and a relative viability (Sulindac + Bortezomib; first compound 0.8 µM) of 0.359. For the same cell line, the relative viability (Sulindac + Bortezomib; first compound 2.53 µM) was 0.703, the relative viability (Sulindac + Bortezomib; first compound 8 µM) was 0.846 and the relative viability ([1]; first compound 0.005 µM) was 0.343. The relative viability ([1]; first compound 0.01581 µM) was 0.136, the relative viability ([1]; first compound 0.05 µM) was 0.0975 and the relative viability ([1]; first compound 0.1581 µM) was 0.0825. The relative viability ([1]; first compound 0.5 µM) was 0.066, the relative viability (Sulindac + Dasatinib; first compound 0.08 µM) was 0.613 and the relative viability (Sulindac + Dasatinib; first compound 0.253 µM) was 0.531. The relative viability (Sulindac + Dasatinib; first compound 0.8 µM) was 0.362, the relative viability (Sulindac + Dasatinib; first compound 2.53 µM) was 0.46 and the relative viability (Sulindac + Dasatinib; first compound 8 µM) was 0.507. For the same cell line, the relative viability ([2]; first compound 0.02 µM) was 0.792, the relative viability ([2]; first compound 0.2 µM) was 0.645 and the relative viability ([2]; first compound 2 µM) was 0.326.
